From ChEMBL document CHEMBL6087474, “Discovery of an Efficacious RET PROTAC Degrader with Enhanced Antiproliferative Activity against Resistant Cancer Cells Harboring RET Solvent-Front Mutations” (J Med Chem, 2025)

Columns and labels:
BaF3 [1] = test: PROTAC activity at CRBN/KIF5B-RET (unknown origin) expressed in mouse BaF3 cells assessed as induction of RET degradation at 10 nM measured after 6 hrs by Western blot analysis relative to control; format: cell-based
BaF3 [2] = test: PROTAC activity at CRBN/KIF5B-RET (unknown origin) expressed in mouse BaF3 cells assessed as induction of RET degradation at 100 nM measured after 6 hrs by Western blot analysis relative to control; format: cell-based
BaF3 [3] = test: PROTAC activity at CRBN/KIF5B-RET (unknown origin) expressed in mouse BaF3 cells assessed as induction of RET degradation at 1000 nM measured after 6 hrs by Western blot analysis relative to control; format: cell-based
BaF3 [4] = test: PROTAC activity at VHL/KIF5B-RET (unknown origin) expressed in mouse BaF3 cells assessed as induction of RET degradation at 10 nM measured after 6 hrs by Western blot analysis relative to control; format: cell-based
BaF3 [5] = test: PROTAC activity at VHL/KIF5B-RET (unknown origin) expressed in mouse BaF3 cells assessed as induction of RET degradation at 100 nM measured after 6 hrs by Western blot analysis relative to control; format: cell-based
BaF3 [6] = test: PROTAC activity at VHL/KIF5B-RET (unknown origin) expressed in mouse BaF3 cells assessed as induction of RET degradation at 1000 nM measured after 6 hrs by Western blot analysis relative to control; format: cell-based
BaF3 [7] = test: Antiproliferative activity against mouse BaF3 cells stably expressing KIF5B-RET-G810C mutant incubated for 72 hrs by CCK-8 assay; format: functional, cell-based; details: BaF3, 72 h
BaF3 [8] = test: Antiproliferative activity against mouse BaF3 cells stably expressing KIF5B-RET-G810R mutant incubated for 72 hrs by CCK-8 assay; format: functional, cell-based; details: BaF3, 72 h
BaF3 [9] = test: Antiproliferative activity against mouse BaF3 cells stably expressing KIF5B-RET-V804L mutant incubated for 72 hrs by CCK-8 assay; format: functional, cell-based; details: BaF3, 72 h
BaF3 [10] = test: Antiproliferative activity against mouse BaF3 cells stably expressing KIF5B-RET-G810S mutant incubated for 72 hrs by CCK-8 assay; format: functional, cell-based; details: BaF3, 72 h
BaF3 [11] = test: Antiproliferative activity against mouse BaF3 cells stably expressing CCDC6-RET-V804M mutant incubated for 72 hrs by CCK-8 assay; format: functional, cell-based; details: BaF3, 72 h
BaF3 [12] = test: Antiproliferative activity against mouse BaF3 cells stably expressing CCDC6-RET-G810C mutant incubated for 72 hrs by CCK-8 assay; format: functional, cell-based; details: BaF3, 72 h
BaF3 [13] = test: Antiproliferative activity against mouse BaF3 cells stably expressing KIF5B-RET fusion protein incubated for 72 hrs by CCK-8 assay; format: functional, cell-based; details: BaF3, 72 h
BaF3 [14] = test: Antiproliferative activity against mouse BaF3 cells stably expressing KIF5B-RET-V804M mutant incubated for 72 hrs by CCK-8 assay; format: functional, cell-based; details: BaF3, 72 h
BaF3 [15] = test: Antiproliferative activity against mouse BaF3 cells stably expressing CCDC6-RET incubated for 72 hrs by CCK-8 assay; format: functional, cell-based; details: BaF3, 72 h

| Compound | Activity (BaF3 [1]) [%] | Activity (BaF3 [2]) [%] | Activity (BaF3 [3]) [%] | Activity (BaF3 [4]) [%] | Activity (BaF3 [5]) [%] | Activity (BaF3 [6]) [%] | further results |
| --- | --- | --- | --- | --- | --- | --- | --- |
| COc1ccc(CN2C3CC2CN(c2ccc(-c4cc(-c5cnn(C6CCN(CCCCC#Cc7cccc8c7CN(C7CCC(=O)NC7=O)C8=O)CC6)c5)cn5ncc(C#N)c45)cn2)C3)cn1 (centres undefined) | 16 | 42 | 48 |  |  |  |  |
| COc1ccc(CN2C3CC2CN(c2ccc(-c4cc(-c5cnn(C6CCN(C(=O)CN7CCN(c8ccc9c(c8)C(=O)N(C8CCC(=O)NC8=O)C9=O)CC7)CC6)c5)cn5ncc(C#N)c45)cn2)C3)cn1 (centres undefined) | 37 | 49 | 41 |  |  |  |  |
| COc1ccc(CN2C3CC2CN(c2ccc(-c4cc(-c5cnn(CCCCC#Cc6cccc7c6CN(C6CCC(=O)NC6=O)C7=O)c5)cn5ncc(C#N)c45)cn2)C3)cn1 (centres undefined) | 19 | 23 | 21 |  |  |  |  |
| COc1ccc(CN2C3CC2CN(c2ccc(-c4cc(-c5cnn(CCCCCCCCCCCCCCC(=O)N[C@H](C(=O)N6C[C@H](O)C[C@H]6C(=O)N[C@@H](C)c6ccc(-c7scnc7C)cc6)C(C)(C)C)c5)cn5ncc(C#N)c45)cn2)C3)cn1 |  |  |  | -6 | 3 | 20 |  |
| COc1ccc(CN2C3CC2CN(c2ccc(-c4cc(-c5cnn(C6CCN(CCCC#Cc7cccc8c7CN(C7CCC(=O)NC7=O)C8=O)CC6)c5)cn5ncc(C#N)c45)cn2)C3)cn1 (centres undefined) | 19 | 35 | 51 |  |  |  |  |
| COc1ccc(CN2C3CC2CN(c2ccc(-c4cc(-c5cnn(C6CCN(CCCCCCC#Cc7cccc8c7CN(C7CCC(=O)NC7=O)C8=O)CC6)c5)cn5ncc(C#N)c45)cn2)C3)cn1 (centres undefined) | 35 | 46 | 47 |  |  |  |  |
| COc1ccc(CN2C3CC2CN(c2ccc(-c4cc(-c5cnn(CCCCCCCCC#Cc6cccc7c6CN(C6CCC(=O)NC6=O)C7=O)c5)cn5ncc(C#N)c45)cn2)C3)cn1 (centres undefined) | 17 | 47 | 34 |  |  |  |  |
| COc1ccc(CN2C3CC2CN(c2ccc(-c4cc(-c5cnn(CCCCCCCCCCC(=O)N[C@H](C(=O)N6C[C@H](O)C[C@H]6C(=O)N[C@@H](C)c6ccc(-c7scnc7C)cc6)C(C)(C)C)c5)cn5ncc(C#N)c45)cn2)C3)cn1 |  |  |  | 17 | 39 | 32 |  |
| COc1ccc(CN2C3CC2CN(c2ccc(-c4cc(-c5cnn(C6CCN(CC(=O)N7CCN(c8ccc9c(c8)C(=O)N(C8CCC(=O)NC8=O)C9=O)CC7)CC6)c5)cn5ncc(C#N)c45)cn2)C3)cn1 (centres undefined) | 30 | 34 | 32 |  |  |  |  |
| COc1ccc(CN2C3CC2CN(c2ccc(-c4cc(-c5cnn(CCCCCCCCCCC#Cc6cccc7c6CN(C6CCC(=O)NC6=O)C7=O)c5)cn5ncc(C#N)c45)cn2)C3)cn1 (centres undefined) | 15 | 39 | 54 |  |  |  |  |
| COc1ccc(CN2C3CC2CN(c2ccc(-c4cc(-c5cnn(CCC#Cc6cccc7c6CN(C6CCC(=O)NC6=O)C7=O)c5)cn5ncc(C#N)c45)cn2)C3)cn1 (centres undefined) | 15 | 26 | 25 |  |  |  |  |
| COc1ccc(CN2C3CC2CN(c2ccc(-c4cc(-c5cnn(CCCCCCCCC(=O)N[C@H](C(=O)N6C[C@H](O)C[C@H]6C(=O)N[C@@H](C)c6ccc(-c7scnc7C)cc6)C(C)(C)C)c5)cn5ncc(C#N)c45)cn2)C3)cn1 |  |  |  | 1 | 34 | 39 |  |
| COc1ccc(CN2C3CC2CN(c2ccc(-c4cc(OCC(C)(C)O)cn5ncc(C#N)c45)cn2)C3)cn1 [SELPERCATINIB] |  |  |  |  |  |  | IC50 (BaF3 [7]): 690 nM; IC50 (BaF3 [8]): 1060 nM; IC50 (BaF3 [9]): 30 nM; IC50 (BaF3 [10]): 570 nM; IC50 (BaF3 [11]): 50 nM; IC50 (BaF3 [12]): 350 nM |
| COc1ccc(CN2C3CC2CN(c2ccc(-c4cc(-c5cnn(C6CCN(CCCCCC#Cc7cccc8c7CN(C7CCC(=O)N(C)C7=O)C8=O)CC6)c5)cn5ncc(C#N)c45)cn2)C3)cn1 (centres undefined) |  |  |  |  |  |  | IC50 (BaF3 [13]): 20 nM; IC50 (BaF3 [7]): 700 nM; IC50 (BaF3 [8]): 1690 nM; IC50 (BaF3 [14]): 70 nM; IC50 (BaF3 [9]): 50 nM; IC50 (BaF3 [10]): 240 nM; IC50 (BaF3 [15]): 10 nM; IC50 (BaF3 [11]): 20 nM; IC50 (BaF3 [12]): 100 nM |
| COc1ccc(CN2C3CC2CN(c2ccc(-c4cc(-c5cnn(CCCCCCC#Cc6cccc7c6CN(C6CCC(=O)NC6=O)C7=O)c5)cn5ncc(C#N)c45)cn2)C3)cn1 (centres undefined) | 27 | 31 | 22 |  |  |  |  |
| COc1ccc(CN2C3CC2CN(c2ccc(-c4cc(-c5cnn(C6CCN(CCCCCCCC#Cc7cccc8c7CN(C7CCC(=O)NC7=O)C8=O)CC6)c5)cn5ncc(C#N)c45)cn2)C3)cn1 (centres undefined) | 12 | 16 | 30 |  |  |  |  |
| COc1ccc(CN2C3CC2CN(c2ccc(-c4cc(-c5cnn(CCCCC(=O)N[C@H](C(=O)N6C[C@H](O)C[C@H]6C(=O)N[C@@H](C)c6ccc(-c7scnc7C)cc6)C(C)(C)C)c5)cn5ncc(C#N)c45)cn2)C3)cn1 |  |  |  | -14 | -11 | -11 |  |
| COc1ccc(CN2C3CC2CN(c2ccc(-c4cc(-c5cnn(C6CCN(CC#Cc7cccc8c7CN(C7CCC(=O)NC7=O)C8=O)CC6)c5)cn5ncc(C#N)c45)cn2)C3)cn1 (centres undefined) | 9 | 7 | 14 |  |  |  |  |
| COc1ccc(CN2C3CC2CN(c2ccc(-c4cc(-c5cnn(CCCCCCC(=O)N[C@H](C(=O)N6C[C@H](O)C[C@H]6C(=O)N[C@@H](C)c6ccc(-c7scnc7C)cc6)C(C)(C)C)c5)cn5ncc(C#N)c45)cn2)C3)cn1 |  |  |  | 16 | 49 | 51 |  |
| COc1ccc(CN2C3CC2CN(c2ccc(-c4cc(-c5cnn(CCOCCOCCC(=O)N[C@H](C(=O)N6C[C@H](O)C[C@H]6C(=O)N[C@@H](C)c6ccc(-c7scnc7C)cc6)C(C)(C)C)c5)cn5ncc(C#N)c45)cn2)C3)cn1 |  |  |  | 8 | 1 | -5 |  |
